Where two headings read alike, the source gives them in different places.

What all share (type): in vivo
For one series, the system named is Tygress tomato plants. To be noted: for Toxicity (0-10): 0=no injury, 10=plant death. The protocol: The following experiments were performed in a green house during the spring of 2009 at GCREC, Balm, University of Florida. Crop set-up, procedures and variables were as follows.
Transplants of ‘Tygress’ tomato plants were planted in 2-gallon pots filled with commercial planting medium with nutrient concentration of Fe, Zn, Mn, Cu being negligible and insufficient for crop growth. Irrigation and non-micronutrient fertilizer were provided daily through microsprinklers at recommended rates for tomato production in Florida. No pesticides were used. Treatments were as described in Tables 42, 43, and 44 below. BIOX-Cu was compared to Cu-sulfate, BIOX-EDC, and BIOX-O; and BIOX-Fe was compared to Fe-sulfate and BIOX-EDF. BIOX-MEZ is Ca-HMTBA.
Treatments were applied at 6 WAT (weeks after transplanting) using a water volume of 200 mL/plant. Deionized water was used for foliar applications. A non-ionic surfactant was added. Other nutrients were applied as appropriate under non-limiting conditions.
Toxicity of the treatments was assessed by rating foliar tissue using a visual scale, where 0=no injury and 10=plant death.
Experimental design was a randomized complete block design with 6 replications. Data were analyzed using a general linear model, and means were separated using an LSD test at the 5% significance level.

Series [1] relates to soybean plants (Asgrow 1102). Briefly: Visual greenness ratings (1-5 scale) of soybean plants, open-field (Examples 11-12). To be noted: for Mean visual greenness scores (1-5): 7.0 kg/ha, V4. The procedure:
The following experiments were performed on soybean plants growing in open-field plots during the summer and fall of 2008 at two production fields in West Central Minnesota. […] Trial design was a randomized complete block with 4 replications. Each plot measured 10' by 30' and consisted of five 22'' rows. Although all five rows of each plot were treated, only the center three rows (25' in length) of each plot were machine harvested. The two fields selected for these studies had historical Iron Deficiency Chlorosis (IDC) issues. The two field sites were planted by farmers with elite Roundup Ready commodity type soybean varieties with IDC tolerance (Asgrow 1102, Monsanto Corp.). […] BIOX-M was applied at a rate of 1.12 kg Mn/ha. […] All V4 treatments were applied in 10 gallons per acre of water with a backpack sprayer with a hand boom designed to “band” apply product directly to the plant row. Three nozzles with ConeJet TXVS-2 tips were oriented on either side and over the top of each row. This maximized the applied product to the plant tissue itself and minimized application of product to the soil surface. […] The V6 treatments (where applicable) were applied in 20 gallons per acre of water to increase the suspension of the BIOX products.

Series [2] has as its system soybean plants (Asgrow 1102). Briefly: ICP-MS micronutrient content of soybean trifoliates (Examples 11-12). The note with it: 7.0 kg/ha, V4; for Micronutrient content from ICP-MS analysis: Fe: in ppm (unit assumed). Also on record: Micronutrient content from ICP-MS analysis: Mn: unit not given here. The protocol:
The following experiments were performed on soybean plants growing in open-field plots during the summer and fall of 2008 at two production fields in West Central Minnesota. […] Trial design was a randomized complete block with 4 replications. Each plot measured 10' by 30' and consisted of five 22'' rows. Although all five rows of each plot were treated, only the center three rows (25' in length) of each plot were machine harvested. The two fields selected for these studies had historical Iron Deficiency Chlorosis (IDC) issues. The two field sites were planted by farmers with elite Roundup Ready commodity type soybean varieties with IDC tolerance (Asgrow 1102, Monsanto Corp.). […] BIOX-M was applied at a rate of 1.12 kg Mn/ha. […] All V4 treatments were applied in 10 gallons per acre of water with a backpack sprayer with a hand boom designed to “band” apply product directly to the plant row. Three nozzles with ConeJet TXVS-2 tips were oriented on either side and over the top of each row. This maximized the applied product to the plant tissue itself and minimized application of product to the soil surface. […] The V6 treatments (where applicable) were applied in 20 gallons per acre of water to increase the suspension of the BIOX products. […] The harvested plants were dried, ground, and subjected to Inductively Coupled Plasma-Mass Spectrometry (ICP-MS) analysis to determine plant micronutrient content.

Series [3] deals with soybean plants (Asgrow 1102). Briefly: Soybean seed protein and oil content (Examples 11-12). The note with it: 7.0 kg/ha, V4, in %. The procedure: The following experiments were performed on soybean plants growing in open-field plots during the summer and fall of 2008 at two production fields in West Central Minnesota. […] Trial design was a randomized complete block with 4 replications. Each plot measured 10' by 30' and consisted of five 22'' rows. Although all five rows of each plot were treated, only the center three rows (25' in length) of each plot were machine harvested. The two fields selected for these studies had historical Iron Deficiency Chlorosis (IDC) issues. The two field sites were planted by farmers with elite Roundup Ready commodity type soybean varieties with IDC tolerance (Asgrow 1102, Monsanto Corp.). […] BIOX-M was applied at a rate of 1.12 kg Mn/ha. […] All V4 treatments were applied in 10 gallons per acre of water with a backpack sprayer with a hand boom designed to “band” apply product directly to the plant row. Three nozzles with ConeJet TXVS-2 tips were oriented on either side and over the top of each row. This maximized the applied product to the plant tissue itself and minimized application of product to the soil surface. […] The V6 treatments (where applicable) were applied in 20 gallons per acre of water to increase the suspension of the BIOX products. Soybean seed was harvested after soybean maturity was reached (3 October at […], and 17 Oct. 2008 at Foxhome) and seed yields for each experimental treatment group were determined. In addition, seed samples from each treatment were dried to 13% moisture content, then analyzed for protein and oil content.

Turning to `CSCCC(O)C(=O)[O-].CSCCC(O)C(=O)[O-].[Cu+2]` (stereo not shown) [BIOX-Cu, Cu-HMTBA], the “Toxicity compared to non-treated control plants, statement” value with Tygress tomato plants (BIOX-Cu at 0.46 and 0.55 lb/acre, Cu-sulfate at 0.8 lb/acre, BIOX-EDC at 0.4 lb/acre) is reported as “increased levels of toxicity”. Also, the “Toxicity (0-10)” value was 0 in the series with Tygress tomato plants (Cu 0.14 lb/acre), 1 in the series with Tygress tomato plants (Cu 0.28 lb/acre), 5 in the series with Tygress tomato plants (Cu 0.46 lb/acre) and 6 with Tygress tomato plants (Cu 0.55 lb/acre). Further, the “Toxicity, statement” value in the series with Tygress tomato plants (the two low levels of BIOX-Cu (0.14 and 0.28 lb/acre)) is “no toxic effects”.

For the compound `CSCCC(O)C(=O)[O-].CSCCC(O)C(=O)[O-].[Mn+2]` (stereo not shown) [BIOX-M, Mn-HMTBA], the “Mean visual greenness scores (1-5)” value is listed as 2.5 in series [1] (Jul. 15, 2008 Rating, Foxhome); 2.9 in series [1] (Jul. 15, 2008 Rating, Renville); 1.0 C in series [1] (Jul. 29, 2008 Rating, Foxhome); 1.3 in series [1] (Jul. 29, 2008 Rating, Renville). Moreover, in series [1] (BIOX-M 1.12 kg Mn/ha, Foxhome site, 29 July rating), the “Greenness of soybean plants compared to control, statement” value is recorded as “small but significant increase in greenness”. Besides, the “Micronutrient content from ICP-MS analysis: Mn” value in series [2] (Foxhome) was 78.31; in series [2] (Renville) it was 88.64. Moreover, the results for the “Micronutrient content from ICP-MS analysis: Fe” value in series [2] (Foxhome) and in series [2] (Renville) were 90.52 and 99.40, respectively. Besides, the entries for the “Oil content (13% moisture)” value in series [3] (Foxhome) and in series [3] (Renville) were 18.28 and 19.97, respectively. Further, the “Protein content (13% moisture)” value is given as 32.90 in series [3] (Foxhome) and 31.97 in series [3] (Renville).

For the origin of these results see patent US20110098177A1, “METHODS AND COMPOSITIONS OF PLANT MICRONUTRIENTS” (NOVUS INTERNATIONAL INC., priority 2006, published 2011).
